The numbers were not newly measured in patent US20020028792A1, “Combinations of bisphosphonates, estrogens and estrogenic agents” (American Home Products Corporation, priority 2000, published 2002), which cites them from elsewhere.

The conditions of this series: Paget's disease of the bone; 30-mg tablets.

For `O=P(O)(O)C(O)(Cc1cccnc1)P(=O)(O)O` [Risedronate], the “effectiveness in clinical trials” value is recorded as “effective”.
